Consider 38 compounds from patent US5288757A, “Aminosulfonyl urea ACAT inhibitors and a method of lowering blood cholesterol levels therewith” (priority 1993, dated 1994).

Where a name gives a salt, the structure may show the parent alone.

The subject of the first assay is Plasma TC. The assay is described as follows: in vivo screen designated APCC, plasma total cholesterol in rats on high fat, high cholesterol diet. On the set-up: species or system male Sprague-Dawley rats. The conditions noted are these: * dosed at 50 mg/kg; rat; high fat, high cholesterol diet with 0.5% cholic acid; read-out: % Change in Plasma TC Values (mg/dl). An excerpt: In one in vivo screen designated APCC, male Sprague-Dawley rats (200 to 225 g) were randomly divided into treatment groups and dosed at 4 PM with either vehicle (CMC/Tween) or suspensions of compounds in vehicle. The normal chow diet was then replaced with a high fat, high cholesterol diet with 0.5% cholic acid. The rats consumed this diet ad libitum during the night and were sacrificed at 8 AM to obtain blood samples for cholesterol analysis using standard procedures. Statistical differences between mean cholesterol values for the same vehicle were determined using analysis of variance followed by Fisher's least significant test. Compounds were dosed at 30 mg/kg unless otherwise noted.
As for `CC(C)c1cccc(C(C)C)c1NC(=O)NS(=O)(=O)N(C(C)C)C(C)C` [Example 1, N-[2,6-bis(1-methylethyl)phenyl]-N'-[[bis(1-methylethyl)amino]sulfonyl]ure], the change in vivo at 50 mg/kg was -59%.
The same measure, in the same setting: the result for `CC(C)c1cccc(C(C)C)c1NC(=O)NS(=O)(=O)NC(c1ccccc1)c1ccccc1` [Example 2, N-[2,6-bis(1-methylethyl)phenyl]-N'-[[(diphenylmethyl)amino]sulfonyl]urea] reads -14%.
On the same count and under the same terms, then `CCCCN(CCCC)S(=O)(=O)NC(=O)Nc1c(C(C)C)cccc1C(C)C` [Example 4, N-[2,6-bis(1-methylethyl)phenyl]-N'-[(dibutylamino)sulfonyl]urea], with -66%.
For `CC(C)c1cccc(C(C)C)c1NC(=O)NS(=O)(=O)Nc1c(C(C)C)cccc1C(C)C` [Example 6, N-[2,6-bis(1-methylethyl)phenyl]-N'-[[[2,6-bis(1-methylethyl)phenyl]amino]sulfonyl]urea], the change in vivo at 50 mg/kg was -54%.
On the same count and under the same terms, then `CC(C)c1cccc(C(C)C)c1NC(=O)NS(=O)(=O)NCC(c1ccccc1)c1ccccc1` [Example 7, N-[2,6-bis(1-methylethyl)phenyl]-N'-[[(2,2-diphenylethyl)amino]sulfonyl]urea], with -20%; and `CC(C)c1cccc(C(C)C)c1NC(=O)NS(=O)(=O)N(Cc1ccccc1)Cc1ccccc1` [Example 9, N-[2,6-bis(1-methylethyl)phenyl]-N'-[(bis(phenylmethyl)amino)sulfonyl]urea], with -59%; and `CC(C)c1cccc(C(C)C)c1NC(=O)NS(=O)(=O)NC1c2ccccc2-c2ccccc21` [Example 10, N-[2,6-bis(1-methylethyl)phenyl]-N'-[(9H-fluoren-9-ylamino)sulfonyl]urea], with -4%.
Still for that read-out and setting: then `CC(C)c1cccc(C(C)C)c1NC(=O)NS(=O)(=O)N(Cc1ccccc1)C(C)C` [Example 11, N-[2,6-bis(1-methylethyl)phenyl]-N'-[[(1-methylethyl)(phenylmethyl)amino]sulfonyl]urea], with -60%; and `CCCCCCCCN(CCCCCCCC)S(=O)(=O)NC(=O)Nc1c(C(C)C)cccc1C(C)C` [Example 12, N-[2,6-bis(1-methylethyl)phenyl]-N'-[(dioctylamino)sulfonyl]urea], with -41%.

Still in this assay, the particulars now being: Rattus norvegicus, read-out: % Change in Plasma TC Values (mg/dl).
Consider `CCCCN(CCCC)S(=O)(=O)NC(=O)Nc1c(C(C)C)cccc1C(C)C` [Example 43, N-[2,6-bis(1-methylethyl)phenyl]-N'-[(dibutylamino)sulfonyl]urea, monosodium salt], for which the change in vivo at 30 mg/kg was -68%.

The same assay, now with this note: dosed at 30 mg/kg; rat; high fat, high cholesterol diet with 0.5% cholic acid; read-out: % Change in Plasma TC Values (mg/dl).
For `CC(C)c1cccc(C(C)C)c1NC(=O)NS(=O)(=O)N(c1ccccc1)c1ccccc1` [Example 3], the change in vivo at 30 mg/kg was -37%.
On the same count and under the same terms, the result for `CC(C)c1cccc(C(C)C)c1NC(=O)NS(=O)(=O)N1CCC(c2ccccc2)CC1` [Example 13, N-[2,6-bis(1-methylethyl)phenyl]-N'-[(4-phenyl-1-piperidinyl)sulfonyl]urea] reads -67%; that for `CCCCCCN(CCCCCC)S(=O)(=O)NC(=O)Nc1c(C(C)C)cccc1C(C)C` [Example 14], -77%.
The same measure, in the same setting: then `CC(C)c1cccc(C(C)C)c1NC(=O)NS(=O)(=O)N(CCCN(C)C)CCCN(C)C` [Example 15, N-[[bis[3-(dimethylamino)propyl]amino]sulfonyl]-N'-[2,6-bis(1-methylethyl)phenyl]urea], with -30%; and `CCCCCCNS(=O)(=O)NC(=O)Nc1c(C(C)C)cccc1C(C)C` [Example 16, N-[2,6-bis(1-methylethyl)phenyl]-N'-[(hexylamino)sulfonyl]urea], with -19%; and `CC(C)c1cccc(C(C)C)c1NC(=O)NS(=O)(=O)N(CC1CCCO1)CC1CCCO1` (centres unmarked) [Example 17, N-[2,6-bis(1-methylethyl)phenyl]-N'-[[bis[(tetrahydro-2-furanyl)methyl]amino]sulfonyl]urea], with -53%.
Same read-out and setting: then `CCN(CC)S(=O)(=O)NC(=O)Nc1c(C(C)C)cccc1C(C)C` [Example 18, N-[2,6-bis(1-methylethyl)phenyl]-N'-[(diethylamino)sulfonyl]urea], with -19%; and `CCCCCCCCN(C)S(=O)(=O)NC(=O)Nc1c(C(C)C)cccc1C(C)C` [Example 19, N-[2,6-bis(1-methylethyl)phenyl]-N'-[(methyloctylamino)sulfonyl]urea], with -59%.
For `CC(C)c1cccc(C(C)C)c1NC(=O)NS(=O)(=O)N(C)CCc1ccccc1` [Example 20, N-[2,6-bis(1-methylethyl)phenyl]-N'-[[methyl(2-phenylethyl)amino]sulfonyl]urea], the change in vivo at 30 mg/kg was -71%.
Still for that read-out and setting: then `CC(C)c1cccc(C(C)C)c1NC(=O)NS(=O)(=O)N(C(C)C)C1CCCCC1` [Example 21, N-[2,6-bis(1-methylethyl)phenyl]-N'[[cyclohexyl(1-methylethyl)amino]sulfonyl]urea], with -68%; and `CCCCCN(CCCCC)S(=O)(=O)NC(=O)Nc1c(C(C)C)cccc1C(C)C` [Example 22, N-[2,6-bis(1-methylethyl)phenyl]-N'-[(dipentylamino)sulfonyl]urea], with -76%; and `CC(C)CN(CC(C)C)S(=O)(=O)NC(=O)Nc1c(C(C)C)cccc1C(C)C` [Example 23, N-[2,6-bis(1-methylethyl)phenyl]-N'-[[bis(2-methylpropyl)amino]sulfonyl]urea], with -75%.
Still for that read-out and setting: then `C=CCN(CC)S(=O)(=O)NC(=O)Nc1c(C(C)C)cccc1C(C)C` [Example 24, N-[2,6-bis(1-methylethyl)phenyl]-N'-[[ethyl(2-propenyl)amino]sulfonyl]urea], with -48%; and `CC(C)CCN(CCC(C)C)S(=O)(=O)NC(=O)Nc1c(C(C)C)cccc1C(C)C` [Example 25, N-[[bis(3-methylbutyl)amino]sulfonyl]-N'-[2,6-bis(1-methylethyl)phenyl] urea], with -60%.
Still for that read-out and setting: the result for `CCCCCCCCCCN(CCCCCCCCCC)S(=O)(=O)NC(=O)Nc1c(C(C)C)cccc1C(C)C` [Example 26, N-[2,6-bis(1-methylethyl)phenyl]-N'-[(didecylamino)sulfonyl]urea] reads -57%.
Turning to `CCCCCCCCCCCCN(CCCCCCCCCCCC)S(=O)(=O)NC(=O)Nc1c(C(C)C)cccc1C(C)C` [Example 27], the change in vivo at 30 mg/kg was determined as 5%.
The same measure, in the same setting: the result for `CC(C)c1cccc(C(C)C)c1NC(=O)NS(=O)(=O)N(C1CCCCC1)C1CCCCC1` [Example 29, N-[2,6-bis(1-methylethyl)phenyl]-N'-[(dicyclohexylamino)sulfonyl]urea] reads -64%; that for `CCCCN(C)S(=O)(=O)NC(=O)Nc1c(C(C)C)cccc1C(C)C` [Example 30, N-[2,6-bis(1-methylethyl)phenyl]-N'-[(butylmethylamino)sulfonyl]urea], -56%; that for `CCCCCCCCCCCCCCCCCCN(C)S(=O)(=O)NC(=O)Nc1c(C(C)C)cccc1C(C)C` [Example 31, N-[2,6-bis(1-methylethyl)phenyl]-N'-[(methyloctadecylamino)sulfonyl]urea], -60%.
For `CC(C)NS(=O)(=O)NC(=O)Nc1c(C(C)C)cccc1C(C)C` [Example 32, N-[2,6-bis(1-methylethyl)phenyl]-N'-[[(1-methylethyl)amino]sulfonyl]urea], the change in vivo at 30 mg/kg is -17%.
On the same count and under the same terms, then `C=CCN(CC=C)S(=O)(=O)NC(=O)Nc1c(C(C)C)cccc1C(C)C` [Example 33, N-[2,6-bis(1-methylethyl)phenyl]-N'-[(di-2-propenylamino)sulfonyl]urea], with -67%.
The same measure, in the same setting: the result for `CCCCN(CC)S(=O)(=O)NC(=O)Nc1c(C(C)C)cccc1C(C)C` [Example 34, N-[2,6-bis(1-methylethyl)phenyl]-N'-[(butylethylamino)sulfonyl]urea] reads -70%; that for `CC(C)c1cccc(C(C)C)c1NC(=O)NS(=O)(=O)N(C(C)C)C(C)(C)C` [Example 35, N-[2,6-bis(1-methylethyl)phenyl]-N'-[[(1,1-dimethylethyl)(1-methylethyl)amino]sulfonyl]urea], -71%.
On the same count and under the same terms, then `CCC(C)N(C(C)CC)S(=O)(=O)NC(=O)Nc1c(C(C)C)cccc1C(C)C` (centres unmarked) [Example 36, N-[2,6-bis(1-methylethyl)phenyl]-N'-[[bis(1-methylpropyl)amino]sulfonyl]urea], with -71%.
Take `CCCCCCCCCCCCCCN(C)S(=O)(=O)NC(=O)Nc1c(C(C)C)cccc1C(C)C` [Example 37, N-[2,6-bis(l-methylethyl)phenyl]-N'-[(methyltetradecylamino)sulfonyl]urea]: the change in vivo at 30 mg/kg is -65%.
On to `CC(C)c1cccc(C(C)C)c1NC(=O)NS(=O)(=O)N1CCCC1` [Example 38, Urea, N-[2,6-bis(1-methylethyl)phenyl]-N'-(1-pyrrolidinylsulfonyl)], for which the change in vivo at 30 mg/kg is -49%.
For the compound `CC(C)c1cccc(C(C)C)c1NC(=O)NS(=O)(=O)N1CCCCC1` [Example 39, Urea, N-[2,6 bis(1-methylethyl)phenyl]-N'-(1-piperidinylsulfonyl)], the change in vivo at 30 mg/kg is -13%.
Same read-out and setting: the result for `CC(C)c1cccc(C(C)C)c1NS(=O)(=O)NC(=O)N(Cc1ccccc1)Cc1ccccc1` [Example 42, N,-[[[2,6-bis(1-methylethyl)phenyl]amino]sulfonyl]-N,N-bis(phenylmethyl) urea] reads -44%.
